Data taken from paper PMC10762250, “Molecular mechanism of antihistamines recognition and regulation of the histamine H1 receptor” (Nature Communications, 2024).

Tests used:
hERG potassium channel = settings: cited from earlier work
H1R W158^4.56 mutant = tested on: H1R W158^4.56 mutant; design: method as in PMID 25013351; settings: W158 single mutation; cited from earlier work
H1R F199^5.47 mutant = tested on: H1R F199^5.47 mutant; design: method as in PMID 25013351; settings: F199 single mutation; cited from earlier work
H1R Y431^6.51 mutant = tested on: H1R Y431^6.51 mutant; design: method as in PMID 25013351; settings: Y431 single mutant; cited from earlier work
guinea pig H1R F436A = settings: cited from earlier work
H1R Y108^3.33 mutant = tested on: H1R Y108^3.33 mutant; design: method as in PMID 25013351; settings: Y108 single mutation; cited from earlier work
H1R N198A = settings: cited from earlier work
H1R F432^6.52 mutant = tested on: H1R F432^6.52 mutant; design: method as in PMID 25013351; settings: F432 single mutation; cited from earlier work
H1R W428^6.48 mutant = tested on: H1R W428^6.48 mutant; design: method as in PMID 25013351; settings: W428 single mutation; cited from earlier work
H1R-H450A [1] = molecular target: T1, H1R-H450A (Homo sapiens, UniProt P35367, H450A); assay: cell-based
T1 sequence (P35367 whole entry H450A): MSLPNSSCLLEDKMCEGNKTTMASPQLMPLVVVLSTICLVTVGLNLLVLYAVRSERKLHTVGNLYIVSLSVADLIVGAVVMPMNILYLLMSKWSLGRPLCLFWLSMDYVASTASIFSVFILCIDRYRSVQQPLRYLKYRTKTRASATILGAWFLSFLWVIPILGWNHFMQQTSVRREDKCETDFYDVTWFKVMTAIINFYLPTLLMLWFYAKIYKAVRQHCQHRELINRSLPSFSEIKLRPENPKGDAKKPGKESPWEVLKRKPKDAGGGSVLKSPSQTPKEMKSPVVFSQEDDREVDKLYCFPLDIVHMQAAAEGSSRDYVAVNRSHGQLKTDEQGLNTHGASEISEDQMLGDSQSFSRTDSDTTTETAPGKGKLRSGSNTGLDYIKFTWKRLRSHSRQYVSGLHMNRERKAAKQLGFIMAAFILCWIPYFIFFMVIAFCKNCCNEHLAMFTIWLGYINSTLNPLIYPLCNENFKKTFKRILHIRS
Experimental: (§1) HEK293 cells were seeded into 24-well culture plates (Corning) at a density of 0.1 million per well and incubated overnight at 37 °C with 5% CO2. […] Twenty-four hours after transfection, the culture media was removed, and transfected cells were harvested and washed with Dulbecco’s phosphate buffered saline (DPBS) buffer (Gibco) twice and then resuspended in Hank’s balanced salt solution (HBSS) buffer (Beyotime) at a density of 1.0 × 10^6 cells per milliliter. […] The accumulation of IP1 was calculated according to a standard dose–response curve in GraphPad Prism 8 (GraphPad Software). Data are represented as the mean ± SEM, n = 3 independent samples.

[2] = tested on: non-H1R targets, including the potassium channel; settings: cited from earlier work
H1R-H450A [3] = molecular target: T1, H1R-H450A; settings: H450A vs wild type
Experimental: as §1

With `COc1ccc(CCN2CCC(Nc3nc4ccccc4n3Cc3ccc(F)cc3)CC2)cc1` [astemizole] as the compound, how does the “hERG potassium channel block” value (hERG potassium channel) read?
Its value is “blocks”.

With `COc1ccc(CN(CCN(C)C)c2ccccn2)cc1` [mepyramine] as the compound, how does the “Effect of mutation on binding activity” value (H1R W158^4.56 mutant) read?
The value was “completely disrupted”.

And the “Effect of mutation on H1R affinity” value (H1R F199^5.47 mutant)?
The value was “abolished”.

What about the “Effect of mutation on binding activity” value (H1R Y431^6.51 mutant) of the same compound?
The value was “completely disrupted”.

What about the “Decrease in affinity by mutation” value (guinea pig H1R F436A) of the same compound?
Its value is 20 fold.

And the “Effect of mutation on binding activity” value (H1R Y108^3.33 mutant)?
The value was “completely disrupted”.

What about the “Effect of mutation on affinity” value (H1R N198A) of the same compound?
The value was “did not cause obvious affinity loss”.

And the “Effect of mutation on H1R affinity” value (H1R F432^6.52 mutant)?
The value was “abolished”.

And the “Effect of mutation on H1R affinity” value (H1R W428^6.48 mutant)?
The value was “abolished”.

For `CN(c1nccc(=O)[nH]1)C1CCN(c2nc3ccccc3n2Cc2ccc(F)cc2)CC1` [mizolastine], which Emax (H1R-H450A [1]) is on record?
The Emax was 36.1 ± 4.94%.

And the IC50 (H1R-H450A [1])?
The IC50 was 5.14 ± 0.13 nM.

And the “Cross-interaction with non-H1R targets” value [2]?
The value was “does not cross-interact with any non-H1R targets”.

What about the “Effect of mutation on ability/efficacy to inhibit H1R signaling” value (H1R-H450A [3]) of the same compound?
Its value is “obviously crippled”.
